Measured values published in ChEMBL document CHEMBL1149730, “Constituents of Eriobotrya japonica. A study of their antiviral properties” (J Nat Prod, 1992).
Converted amounts (≈) assume the structure as drawn. The source made the active and inactive calls. The rule behind the calls is not given here.

Experiments:
rhinovirus A1B [1] = assay: Antiviral activity against HRV1B replication in human Hela Ohio cells assessed as virus-induced cytopathic effect at 20 ug/ml after 24 hrs at 33 degC by light microscopy; format: functional, Human rhinovirus 1B
[2] = Cytotoxicity against human HeLaS3 cells assessed as maximum non-toxic dose after 24 hrs by neutral red staining; format: cell-based, HeLa S3; details: read-out: Activity
[3] = target: Human immunodeficiency virus type 1 reverse transcriptase (Human immunodeficiency virus 1) (UniProt Q72547); assay: Inhibition of HIV1 reverse transcriptase assessed as [3H]dTTP incorporation up to 50 ug/ml by liquid scintillation counting
[4] = Cytotoxicity against human C8166 cells after 5 to 7 days by MTT-formazan method; format: cell-based; details: read-out: TC50 (the source's name)
Sindbis virus [5] = assay: Antiviral activity against Sindbis virus replication in human HelaS3 cells assessed as virus-induced cytopathic effect at 20 ug/ml after 24 hrs at 37 degC by light microscopy; format: functional
[6] = Cytotoxicity against human HeLa Ohio cells assessed as maximum non-toxic dose after 24 hrs by neutral red staining; format: cell-based; details: read-out: Activity
[7] = system: Human immunodeficiency virus 1; assay: Antiviral activity against HIV1 3B replication in human C8166 cells at 100 ug/ml after 5 to 7 days by MTT-formazan method; format: functional
[8] = system: Human immunodeficiency virus 1; assay: Antiviral activity against HIV1 3B replication in human C8166 cells at 20 ug/ml after 5 to 7 days by MTT-formazan method; format: functional
[9] = system: Human immunodeficiency virus 1; assay: Antiviral activity against HIV1 3B replication in human C8166 cells at 4 ug/ml after 5 to 7 days by MTT-formazan method; format: functional
[10] = system: Human immunodeficiency virus 1; assay: Antiviral activity against HIV1 3B replication in human C8166 cells at 0.8 ug/ml after 5 to 7 days by MTT-formazan method; format: functional
Sindbis virus [11] = assay: Antiviral activity against Sindbis virus replication in human HelaS3 cells assessed as virus-induced cytopathic effect at 50 ug/ml after 24 hrs at 37 degC by light microscopy; format: functional
[12] = system: Human immunodeficiency virus 1; assay: Antiviral activity against HIV1 3B replication in human C8166 cells at 8 ug/ml after 5 to 7 days by MTT-formazan method; format: functional
rhinovirus A1B [13] = assay: Antiviral activity against HRV1B replication in human Hela Ohio cells assessed as virus-induced cytopathic effect at 50 ug/ml after 24 hrs at 33 degC by light microscopy; format: functional, Human rhinovirus 1B
[14] = system: Human immunodeficiency virus 1; assay: Antiviral activity against HIV1 3B replication in human C8166 cells at 40 ug/ml after 5 to 7 days by MTT-formazan method; format: functional
[15] = system: Human immunodeficiency virus 1; assay: Antiviral activity against HIV1 3B replication in human C8166 cells at 0.016 ug/ml after 5 to 7 days by MTT-formazan method; format: functional
[16] = system: Human immunodeficiency virus 1; assay: Antiviral activity against HIV1 3B replication in human C8166 cells at 100 uM after 5 to 7 days by MTT-formazan method; format: functional
rhinovirus A1B [17] = assay: Antiviral activity against HRV1B replication in human Hela Ohio cells assessed as inhibition of virus-induced cytopathic effect at 0.8 ug/ml after 24 hrs at 33 degC by light microscopy; format: functional, organism-based; details: Human rhinovirus 1B
rhinovirus A1B [18] = assay: Antiviral activity against HRV1B replication in human Hela Ohio cells assessed as inhibition of virus-induced cytopathic effect at 4 ug/ml after 24 hrs at 33 degC by light microscopy; format: functional, Human rhinovirus 1B; details: Rhinovirus A
Sindbis virus [19] = assay: Antiviral activity against Sindbis virus replication in human HelaS3 cells assessed as virus-induced cytopathic effect at 4 ug/ml after 24 hrs at 37 degC by light microscopy; format: functional

SMILES | Activity (rhinovirus A1B [1]) [%] | MNTC at 24 h [2] [µg/mL] | Activity [3] | CC50 [4] [µg/mL] | Activity (Sindbis virus [5]) [%] | MNTC at 24 h [6] [µg/mL] | Activity [7] [%] | Activity [8] [%] | Activity [9] [%] | Activity [10] [%] | Activity (Sindbis virus [11]) [%] | Activity [12] [%] | Activity (rhinovirus A1B [13]) [%] | Activity [14] [%] | Activity [15] [%] | Activity [16] [%] | Activity (rhinovirus A1B [17]) | inhibition at 4 µg/mL (rhinovirus A1B [18]) [%] | Activity (Sindbis virus [19]) [%]
C[C@@H]1CC[C@]2(C(=O)O)CC[C@]3(C)C(=CC[C@@H]4[C@@]5(C)C[C@@H](O)[C@H](O)[C@@](C)(COC(=O)/C=C\c6ccc(O)cc6)[C@@H]5CC[C@]43C)[C@@H]2[C@]1(C)O | 100 | 20 | inactive | 50 (≈ 76.8 µM) | 100 | 20 | 0 | 0 | – | – | – | – | – | – | – | – | – | – | –
C[C@@H]1CC[C@]2(C(=O)O)CC[C@]3(C)C(=CC[C@@H]4[C@@]5(C)CC[C@H](O)C(C)(C)[C@@H]5[C@H](O)C[C@]43C)[C@@H]2[C@]1(C)O | 100 | 20 | inactive | 2 (≈ 4.09 µM) | 100 | 20 | – | – | 0 | 1 | – | – | – | – | – | – | – | – | –
C[C@@H]1CC[C@]2(C(=O)O)CC[C@]3(C)C(=CC[C@@H]4[C@@]5(C)C[C@@H](O)[C@H](O)[C@@](C)(CO)[C@@H]5CC[C@]43C)[C@@H]2[C@]1(C)O | – | 50 | inactive | 20 (≈ 39.6 µM) | – | 50 | – | – | – | – | 100 | 1 | 100 | 0 | – | – | – | – | –
Cc1cn([C@H]2C[C@H](N=[N+]=[N-])[C@@H](CO)O2)c(=O)[nH]c1=O [ZIDOVUDINE] | – | – | – | > 1000 | – | – | – | – | – | – | – | – | – | – | 49 | 100 | – | – | –
C[C@@H]1CC[C@]2(C(=O)O)CC[C@]3(C)C(=CC[C@@H]4[C@@]5(C)C[C@@H](O)[C@@H](O)C(C)(C)[C@@H]5CC[C@]43C)[C@@H]2[C@]1(C)O [EUSCAPHIC ACID] | – | 20 | inactive | 20 (≈ 40.9 µM) | 100 | 50 | – | – | – | – | – | 1 | 100 | 0 | – | – | – | – | –
C[C@@H]1CC[C@]2(C(=O)O)CC[C@]3(C)C(=CC[C@@H]4[C@@]5(C)C[C@@H](O)[C@H](OC(=O)/C=C/c6ccc(O)c(O)c6)C(C)(C)[C@@H]5CC[C@]43C)[C@@H]2[C@]1(C)O | 50 | 4 | inactive | 10 (≈ 15.4 µM) | – | 20 | – | – | 1 | – | – | – | – | – | – | – | inactive | < 25 | 100
C[C@@H]1CC[C@]2(C(=O)O)CC[C@]3(C)C(=CC[C@@H]4[C@@]5(C)C[C@@H](O)[C@H](O)[C@@](C)(COC(=O)/C=C/c6ccc(O)cc6)[C@@H]5CC[C@]43C)[C@@H]2[C@]1(C)O | – | 20 | inactive | 30 (≈ 46.1 µM) | 100 | 50 | 0 | 0 | – | – | – | – | 100 | – | – | – | – | – | –
C[C@@H]1CC[C@]2(C(=O)O)CC[C@]3(C)C(=CC[C@@H]4[C@@]5(C)CC[C@H](OC(=O)/C=C/c6ccc(O)cc6)[C@@](C)(CO)[C@@H]5CC[C@]43C)[C@@H]2[C@]1(C)O | 100 | 20 | inactive | 30 (≈ 47.3 µM) | 100 | 20 | 0 | 0 | – | – | – | – | – | – | – | – | – | – | –
